The values below come from ChEMBL document CHEMBL4619707, “Synthesis and biological investigation of triazolopyridinone derivatives as potential multireceptor atypical antipsychotics” (Bioorg Med Chem Lett, 2020).

The target in data set [1] is 5-hydroxytryptamine receptor 2A (Homo sapiens, UniProt P28223). The data set is described as follows: Antagonist activity at 5HT2A receptor (unknown origin) by HTRF cAMP assay. The format is functional. A general note: In TR-FRET formats the signal depends on donor and acceptor labels being close together.
5-hydroxytryptamine receptor 2A, sequence (P28223 whole entry): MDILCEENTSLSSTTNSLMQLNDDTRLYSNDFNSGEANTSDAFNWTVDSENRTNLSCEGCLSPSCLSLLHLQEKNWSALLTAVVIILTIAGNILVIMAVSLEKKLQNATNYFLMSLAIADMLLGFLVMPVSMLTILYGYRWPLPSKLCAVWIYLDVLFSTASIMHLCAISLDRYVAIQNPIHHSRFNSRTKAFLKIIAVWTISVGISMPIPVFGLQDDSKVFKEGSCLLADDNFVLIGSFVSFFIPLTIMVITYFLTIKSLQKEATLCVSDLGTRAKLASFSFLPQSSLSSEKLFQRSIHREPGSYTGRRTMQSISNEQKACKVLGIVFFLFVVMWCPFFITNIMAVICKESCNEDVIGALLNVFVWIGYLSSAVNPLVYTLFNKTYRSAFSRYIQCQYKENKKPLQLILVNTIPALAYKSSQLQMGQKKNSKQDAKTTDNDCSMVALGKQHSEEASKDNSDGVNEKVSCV
Data set [2] deals with T1, 5-hydroxytryptamine receptor 1A (Homo sapiens, UniProt P08908).
T1 sequence (P08908 whole entry): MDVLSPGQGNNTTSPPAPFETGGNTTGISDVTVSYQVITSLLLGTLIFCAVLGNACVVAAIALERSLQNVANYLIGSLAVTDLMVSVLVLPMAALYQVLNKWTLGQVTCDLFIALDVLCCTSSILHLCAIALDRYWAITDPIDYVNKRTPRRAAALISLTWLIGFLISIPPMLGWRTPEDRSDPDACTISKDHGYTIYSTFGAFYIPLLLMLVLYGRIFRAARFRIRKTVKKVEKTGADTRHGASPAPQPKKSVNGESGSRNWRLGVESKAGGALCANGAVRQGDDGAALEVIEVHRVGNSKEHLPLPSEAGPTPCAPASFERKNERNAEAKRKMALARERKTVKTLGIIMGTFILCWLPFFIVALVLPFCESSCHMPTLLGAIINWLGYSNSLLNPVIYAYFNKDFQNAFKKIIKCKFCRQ
The data set is described as follows: Agonist activity at 5HT1A receptor (unknown origin) by calcium-dye based FLIPR assay. The format is functional.

For data set [3], the system named is Mus musculus. Nature of the data set: Antipsychotic activity in ICR mouse assessed as inhibition of quipazine-induced head-twitch response at 0.3 mg/kg, po administered with compound after quipazine administration measured for 15 mins. Format: functional, organism-based.
For data set [4], the target named is T2, D(2) dopamine receptor (Homo sapiens, UniProt P14416). Nature of the data set: Agonist activity at D2 receptor (unknown origin).
T2 sequence (P14416 whole entry): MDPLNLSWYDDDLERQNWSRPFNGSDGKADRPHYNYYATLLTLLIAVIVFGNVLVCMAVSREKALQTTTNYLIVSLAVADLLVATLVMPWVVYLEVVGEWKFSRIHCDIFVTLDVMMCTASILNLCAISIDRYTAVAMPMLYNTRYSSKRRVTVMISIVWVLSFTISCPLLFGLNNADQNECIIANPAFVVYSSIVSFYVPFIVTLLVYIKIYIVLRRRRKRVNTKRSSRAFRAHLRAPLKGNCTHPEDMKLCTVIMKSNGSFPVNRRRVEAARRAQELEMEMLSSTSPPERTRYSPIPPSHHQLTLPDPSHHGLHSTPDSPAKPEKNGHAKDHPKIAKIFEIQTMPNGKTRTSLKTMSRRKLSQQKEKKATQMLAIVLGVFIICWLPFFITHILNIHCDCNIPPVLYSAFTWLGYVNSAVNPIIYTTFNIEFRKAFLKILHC
Data set [5] concerns the target T2, D(2) dopamine receptor. The data set is described as follows: Agonist activity at D2 receptor (unknown origin) relative to 10 uM dopamine.
The nature of data set [6]: Cytotoxicity against human Chang cells assessed as reduction in cell viability. Format: cell-based.
The next data set concerns HEK293. Nature of the data set: Cytotoxicity against human HEK293 cells assessed as reduction in cell viability. The format is cell-based.
Data set [7] concerns the target Muscarinic acetylcholine receptor M3 (Homo sapiens, UniProt P20309). Nature of the data set: Antagonist activity at muscarinic M3 receptor (unknown origin). Format: ADME.
The target of data set [8] is T3, 5-hydroxytryptamine receptor 2C (Homo sapiens, UniProt P28335).
T3 sequence (P28335 whole entry): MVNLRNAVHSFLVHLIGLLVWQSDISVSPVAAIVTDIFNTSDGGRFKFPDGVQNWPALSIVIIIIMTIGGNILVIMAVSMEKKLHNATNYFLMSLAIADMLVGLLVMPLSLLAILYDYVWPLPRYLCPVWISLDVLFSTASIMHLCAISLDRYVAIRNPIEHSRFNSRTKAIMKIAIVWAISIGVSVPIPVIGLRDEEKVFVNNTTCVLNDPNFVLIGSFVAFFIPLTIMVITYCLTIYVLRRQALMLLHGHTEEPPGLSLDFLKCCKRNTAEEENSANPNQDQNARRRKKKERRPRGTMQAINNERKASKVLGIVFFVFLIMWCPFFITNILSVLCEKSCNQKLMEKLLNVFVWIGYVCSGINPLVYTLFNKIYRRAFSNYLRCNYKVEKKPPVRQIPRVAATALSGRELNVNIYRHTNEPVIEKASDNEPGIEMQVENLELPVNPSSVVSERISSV
The data set is described as follows: Antagonist activity at 5-HT2C receptor (unknown origin).

Data set [9] has as its target Voltage-gated inwardly rectifying potassium channel KCNH2 (Homo sapiens, UniProt Q12809). Nature of the data set: Inhibition of human ERG.
The next data set concerns the target Histamine H1 receptor (Homo sapiens, UniProt P35367). Nature of the data set: Antagonist activity at H1 receptor (unknown origin). The format is ADME.
Data set [10] concerns the target Sodium-dependent serotonin transporter (Homo sapiens) (UniProt P31645). As to conditions: 400 nM.
Description: Antagonist activity at SERT receptor (unknown origin) at 400 nM by fluorescence based assay relative to control
Data set [11] concerns Mus musculus. The data set is described as follows: Antipsychotic activity in po dosed ICR mouse assessed as inhibition of quipazine-induced head-twitch response administered with compound after quipazine administration measured for 15 mins. Format: functional, organism-based.
Data set [12] has as its system Mus musculus. The data set is described as follows: Antipsychotic activity in po dosed mouse assessed as inhibition of phencyclidine-induced hyperlocomotion administered with compound after phencyclidine challenge measured for 75 mins. The format is functional, organism-based.
Data set [13] can be described thus: Toxicity in mouse assessed as sedation by measuring spontaneous locomotor activity at 3 to 10 mg/kg, po. Format: organism-based. As to conditions: in vivo.
Data set [14] is described as follows: Toxicity in mouse assessed as sedation by measuring spontaneous locomotor activity at 0.3 mg/kg, po. The following applies: in vivo. Format: organism-based.

As usually defined, the IC50 is the concentration at which inhibition is half-maximal. By EC50 is commonly meant the concentration at which the effect is half-maximal. Usually inhibition stands for how much of the control response was suppressed. The Emax is the maximal effect, on the per cent scale that the assay sets.

Converted amounts (≈) assume the structure as drawn. The source made the active and inactive calls. The rule behind the calls is not given here.

Voltage-gated inwardly rectifying potassium channel KCNH2, sequence (Q12809 whole entry): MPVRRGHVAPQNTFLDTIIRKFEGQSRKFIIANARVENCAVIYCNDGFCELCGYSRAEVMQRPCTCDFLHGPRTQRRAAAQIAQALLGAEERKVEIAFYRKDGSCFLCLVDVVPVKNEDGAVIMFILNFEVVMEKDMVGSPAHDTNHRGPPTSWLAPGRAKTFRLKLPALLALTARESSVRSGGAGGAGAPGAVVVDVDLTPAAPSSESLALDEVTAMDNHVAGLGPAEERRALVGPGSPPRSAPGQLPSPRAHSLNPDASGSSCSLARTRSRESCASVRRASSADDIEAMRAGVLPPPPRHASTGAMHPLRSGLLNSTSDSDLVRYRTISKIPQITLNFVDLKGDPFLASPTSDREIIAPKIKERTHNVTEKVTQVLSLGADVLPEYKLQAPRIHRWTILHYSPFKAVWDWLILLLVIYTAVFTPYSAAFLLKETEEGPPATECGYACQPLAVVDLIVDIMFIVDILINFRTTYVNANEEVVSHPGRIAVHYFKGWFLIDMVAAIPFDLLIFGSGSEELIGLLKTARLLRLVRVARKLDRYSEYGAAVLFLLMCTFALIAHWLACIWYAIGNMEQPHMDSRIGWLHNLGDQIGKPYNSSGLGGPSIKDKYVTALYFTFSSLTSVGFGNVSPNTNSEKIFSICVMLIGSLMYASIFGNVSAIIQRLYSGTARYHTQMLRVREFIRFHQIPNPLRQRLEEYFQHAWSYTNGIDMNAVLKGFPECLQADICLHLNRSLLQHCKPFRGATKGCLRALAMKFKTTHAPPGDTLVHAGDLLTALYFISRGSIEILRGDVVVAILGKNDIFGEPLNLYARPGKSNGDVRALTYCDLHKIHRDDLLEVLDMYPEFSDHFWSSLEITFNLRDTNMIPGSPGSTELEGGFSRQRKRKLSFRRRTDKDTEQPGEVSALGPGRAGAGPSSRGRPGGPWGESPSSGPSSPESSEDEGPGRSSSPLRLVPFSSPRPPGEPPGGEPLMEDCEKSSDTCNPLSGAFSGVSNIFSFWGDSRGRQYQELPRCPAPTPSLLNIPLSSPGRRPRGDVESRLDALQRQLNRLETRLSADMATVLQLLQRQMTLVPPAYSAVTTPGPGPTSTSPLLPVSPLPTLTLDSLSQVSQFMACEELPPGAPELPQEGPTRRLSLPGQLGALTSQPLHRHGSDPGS
Muscarinic acetylcholine receptor M3, sequence (P20309 whole entry): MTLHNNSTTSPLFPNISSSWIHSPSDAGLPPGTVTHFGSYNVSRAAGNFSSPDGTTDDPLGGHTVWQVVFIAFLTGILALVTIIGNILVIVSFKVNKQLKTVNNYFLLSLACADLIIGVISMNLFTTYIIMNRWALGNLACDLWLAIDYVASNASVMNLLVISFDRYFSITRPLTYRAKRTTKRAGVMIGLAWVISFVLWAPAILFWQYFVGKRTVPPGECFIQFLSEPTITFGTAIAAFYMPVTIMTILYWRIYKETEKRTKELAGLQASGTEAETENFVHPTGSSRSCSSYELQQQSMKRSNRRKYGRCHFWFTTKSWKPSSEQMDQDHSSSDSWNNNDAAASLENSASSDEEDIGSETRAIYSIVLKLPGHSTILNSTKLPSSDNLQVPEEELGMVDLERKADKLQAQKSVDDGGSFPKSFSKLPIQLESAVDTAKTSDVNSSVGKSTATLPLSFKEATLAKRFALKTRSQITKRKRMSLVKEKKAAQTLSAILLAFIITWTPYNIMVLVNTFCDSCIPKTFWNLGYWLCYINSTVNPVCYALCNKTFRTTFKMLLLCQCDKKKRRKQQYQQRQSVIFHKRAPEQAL
Histamine H1 receptor, sequence (P35367 whole entry): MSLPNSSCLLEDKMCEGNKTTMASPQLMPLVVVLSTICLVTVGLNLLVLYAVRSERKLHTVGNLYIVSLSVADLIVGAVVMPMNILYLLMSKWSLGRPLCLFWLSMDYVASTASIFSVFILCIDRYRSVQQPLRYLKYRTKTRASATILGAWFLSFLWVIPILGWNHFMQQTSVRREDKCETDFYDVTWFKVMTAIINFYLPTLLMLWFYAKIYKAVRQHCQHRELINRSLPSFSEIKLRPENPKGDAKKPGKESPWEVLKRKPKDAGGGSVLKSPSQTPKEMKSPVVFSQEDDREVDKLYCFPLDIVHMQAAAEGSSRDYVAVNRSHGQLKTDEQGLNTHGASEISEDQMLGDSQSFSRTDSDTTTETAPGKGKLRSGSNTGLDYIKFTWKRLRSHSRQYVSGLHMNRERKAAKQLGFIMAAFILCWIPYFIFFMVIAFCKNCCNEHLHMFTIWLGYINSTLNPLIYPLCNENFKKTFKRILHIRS
Sodium-dependent serotonin transporter (Homo sapiens), sequence (P31645 whole entry, looked up): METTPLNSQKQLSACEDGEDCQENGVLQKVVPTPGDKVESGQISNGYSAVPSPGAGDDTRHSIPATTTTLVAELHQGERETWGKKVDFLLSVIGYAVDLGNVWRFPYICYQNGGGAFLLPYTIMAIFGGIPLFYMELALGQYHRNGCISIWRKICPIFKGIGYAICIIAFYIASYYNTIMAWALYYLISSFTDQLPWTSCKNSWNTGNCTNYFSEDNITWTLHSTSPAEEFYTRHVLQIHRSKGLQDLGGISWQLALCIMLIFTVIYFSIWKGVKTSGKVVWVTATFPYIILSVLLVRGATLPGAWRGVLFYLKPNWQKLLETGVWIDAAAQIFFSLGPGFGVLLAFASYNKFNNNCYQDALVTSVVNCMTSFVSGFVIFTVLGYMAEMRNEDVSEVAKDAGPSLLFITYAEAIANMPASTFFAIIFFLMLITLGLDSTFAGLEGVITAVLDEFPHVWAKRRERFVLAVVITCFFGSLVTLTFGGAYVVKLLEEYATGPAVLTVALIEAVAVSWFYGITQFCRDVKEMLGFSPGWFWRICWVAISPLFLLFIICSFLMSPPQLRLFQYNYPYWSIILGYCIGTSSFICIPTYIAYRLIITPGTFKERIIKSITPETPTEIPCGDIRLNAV

Compound `O=c1n(CCCCN2CCN(c3cccc4sc(F)cc34)CC2)nc2c(F)cccn12` registered an IC50 in data set [1] of 1070 nM. Moreover, the EC50 in data set [2] is 1.53 nM.
As to `COc1cccc2nn(CCCCN3CCN(c4cccc5sccc45)CC3)c(=O)n12`, the IC50 in [1] came to 13 nM. Besides, in the data set on Mus musculus [3], the inhibition entry is “Active”. Besides, the EC50 in [2] was 2 nM.
For `O=c1n(CCCCN2CCN(c3cccc4sccc34)CC2)nc2c(Cl)cc(Cl)cn12`, the 50% inhibitory concentration (IC50) in [1] is 652 nM. Further, the EC50 in [2] amounted to 0.1 nM.
The compound `N#Cc1cccc2nn(CCCCN3CCN(c4cccc5sccc45)CC3)c(=O)n12` had an IC50 in data set [1] of 104 nM. Also, in [2], the concentration giving a half-maximal response (EC50) was 20.2 nM.
As to `O=c1n(CCCCN2CCN(c3cccc4sccc34)CC2)nc2c(Cl)cccn12`, the IC50 in data set [1] is 368 nM. In data set [2], the EC50 was found to be 12.1 nM.
In [1], `O=c1n(CCCCN2CCC(c3cc(F)cc4oncc34)CC2)nc2ccccn12` came in with a half-inhibitory concentration (IC50) of 15.2 nM. Further, in data set [2], the concentration giving a half-maximal response (EC50) is greater than 10000 nM.
For `O=c1n(CCCCN2CCN(c3cccc4sccc34)CC2)nc2c(F)cc(F)cn12` the same measures were 27 nM and 1.2 nM.
For the compound `Cc1nc2n(c(=O)c1CCN1CCC(c3noc4cc(F)ccc34)CC1)CCCC2` [RISPERIDONE], the EC50 result on D(2) dopamine receptor [4] was “Not Active”. Besides, the Emax on D(2) dopamine receptor [5] is less than 20%. In addition, the half-inhibitory concentration (IC50) in data set [6] is 239 µg/mL (≈ 582 µM); in the data set on HEK293 it was greater than 600 µg/mL.
Regarding `O=c1ccc2ccc(OCCCCN3CCN(c4cccc5sccc45)CC3)cc2[nH]1` [BREXPIPRAZOLE], on D(2) dopamine receptor [4] (read-out: EC50), the half-maximal effective concentration (EC50) turned out to be 6.3 nM. For the same compound, on D(2) dopamine receptor [5], the Emax stood at 29%. Also, the values for the IC50 (in data set [6]; with HEK293) were 44.2 µg/mL (≈ 102 µM) and 19.1 µg/mL (≈ 44.1 µM), respectively.
As for `O=c1n(CCCCN2CCN(c3cccc4sccc34)CC2)nc2c(F)cccn12`, the IC50 in data set [1] is 35.5 nM; in data set [7], greater than 10000 nM; in [8], 2100 nM; in data set [9], 2200 nM. Besides, the inhibition entry with Mus musculus [3] was “Active”. Moreover, the EC50 in data set [2] was determined as 1.8 nM.
On to `O=c1n(CCCCN2CCN(c3cccc4sccc34)CC2)nc2c(Br)cccn12`, for which half-maximal inhibition in [1] (IC50) required 131 nM. Further, the EC50 in data set [2] was determined as 7 nM.
The like results for `N#Cc1ccn2c(=O)n(CCCCN3CCN(c4cccc5sccc45)CC3)nc2c1` were, in that order, 726 nM and 5.9 nM.
With `N#Cc1ccc2nn(CCCCN3CCN(c4cccc5sccc45)CC3)c(=O)n2c1`, the IC50 in [1] is 11 nM; at Histamine H1 receptor, 76.6 nM; in data set [7], greater than 10000 nM; in data set [8], 3290 nM; in data set [9], 1050 nM. Besides, the concentration for a half-maximal effect (EC50) in data set [2] is 9.7 nM.
For `O=C1CCc2ccc(OCCCCN3CCN(c4cccc(Cl)c4Cl)CC3)cc2N1`, the inhibition entry in the data set with Mus musculus [3] was “Active”. The same compound yielded an inhibition in data set [10] of 21%.
Compound `O=c1n(CCCCN2CCN(c3cccc4scnc34)CC2)nc2c(F)cccn12` returned an IC50 in data set [1] of 77.8 nM. Further, the concentration giving a half-maximal response (EC50) in data set [2] was 0.1 nM.
For `O=c1n(CCCCN2CCN(c3cccc4scnc34)CC2)nc2ccccn12` the same measures were 2730 nM and 2.8 nM.
As for `O=c1n(CCCCN2CCN(c3cccc4sccc34)CC2)nc2ccc(F)cn12`, the IC50 in data set [1] turned out to be 46.3 nM. For the same compound, the EC50 in [2] was 0.1 nM.
`N#Cc1cccn2c(=O)n(CCCCN3CCN(c4cccc5sccc45)CC3)nc12`: the IC50 in data set [1] worked out at 155 nM. Moreover, in data set [2], the EC50 was found to be 1.4 nM.
On to `O=c1n(CCCN2CCN(c3cccc(Cl)c3)CC2)nc2ccccn12` [TRAZODONE], for which, at D(2) dopamine receptor [4], the half-maximal effective concentration (EC50) result is recorded as “Not Active”. On D(2) dopamine receptor [5], this compound had a maximum response (Emax) of less than 20%.
`COc1cccn2c(=O)n(CCCCN3CCN(c4cccc5sccc45)CC3)nc12` yielded an IC50 in data set [1] of 85.2 nM. For the same compound, the EC50 in data set [2] stood at 2.2 nM.
`O=c1n(CCCCN2CCN(c3cccc4sccc34)CC2)nc2ccc(Cl)cn12` displayed a 50% inhibitory concentration (IC50) in [1] of 144 nM. For the same compound, in data set [2], the EC50 came to 9.5 nM.
As for `O=c1n(CCCCN2CCN(c3cccc4sccc34)CC2)nc2ccccn12`, the IC50 in [1] is 34.2 nM; at Histamine H1 receptor it was 88.5 nM; in data set [7] it was greater than 10000 nM; in the data set with HEK293, 108 µg/mL (≈ 265 µM); in data set [8] it was greater than 10000 nM; in data set [9] it was 3010 nM. In the data set with Mus musculus [3], the inhibition entry was “Active”. In addition, the inhibition entry in the data set with Mus musculus [11] and with Mus musculus [12] was “Dose-dependent effect” in each case. Further, the Activity entry in data set [13] is listed as “Toxic”; in data set [14] it was “Non-Toxic”. In addition, the concentration for a half-maximal effect (EC50) in data set [2] was 1.7 to 1.8 nM.
